Test results reported in patent US10919949B2, “Acylated insulin analogues and uses thereof” (Novo Nordisk A/S, priority 2017, dated 2021).

What was measured:
isolated rat adipocytes = experiment: Lipogenesis in rat free fat cell assay; format: cell-based
Method: The metabolic potency of the insulin derivatives of the invention was determined by lipogenesis using isolated rat adipocytes.
In brief, epididymal fat pads were removed from killed Sprague-Dawley rats and placed in degradation buffer with collagenase (Worthington) in order to degrade the fat pads into a single-cell suspension. […] The incubation was stopped by addition of MicroScint-E (PerkinElmer), and the plates counted in a TopCount NXT (PerkinElmer).

AKT and ERK = experiment: Insulin receptor signalling via AKT and ERK phosphorylation in CHO-hIR cells (Western blot / Surefire); format: cell-based, Chinese hamster; settings: 10 min stimulation, Table 1A
Method: Insulin receptor (IR) signalling of the analogues of this invention via AKT and ERK pathways was assessed either by traditional Western blotting technique or by the use of Surefire, alphascreen technique.
In brief, CHO-hIR cells were stimulated for 10 min with increasing concentrations of the insulin analogue, washed in ice-cold PBS, snap-frozen and lysed in lysis buffer (Biosource). Equal amounts of proteins were loaded on gels and blotted to nitrocellulose membranes. Phosphorylated AKT and ERK were visualised with Phospho-AKT (Ser473) (Cell signalling #9271) and pMAPK 44/42 ERK1/2 rabbit (Cell Signalling #4376) antibodies, respectively. Band intensities were evaluated using a LAS3000 (Fuji).
The responsiveness value (Span) for each analogue was calculated using non-linear regression in GraphPad Prism 7 from GraphPad Software Inc and expresses as percent of the responsiveness of insulin (% max AKT or % max ERK)

[1] = 0.1% HSA as printed, Table 1A second lipogenesis column
[2] = 0.1% HSA, Table 1A first lipogenesis column

| Substance | Lipogenesis 0.1% HSA EC50 (% of human insulin) (isolated rat adipocytes; [1]) | Lipogenesis 0.1% HSA EC50 (% of human insulin) (isolated rat adipocytes; [2]) | % maxERK/% maxAKT (AKT and ERK) |
| --- | --- | --- | --- |
| N{Epsilon-B28}-[(4S)-4-carboxy-4-[[(4R)-4-[(3R,10S,13R,17R)-3-hydroxy-10,13-dimethyl-2,3,4,5,6,7,8,9,11,12,14,15,16,17-tetradecahydro-1H-cyclopenta[a]phenanthren-17-yl]pentanoyl]amino]butanoyl]-[TyrB5,LysB28],des-(B29-B30)-Insulin [Example 8] | 0.72 % of human insulin | 1.76 % of human insulin | 0.32 |
| N{Epsilon-B28}-[(4R)-4-[(3R,10S,13R,17R)-3-hydroxy-10,13-dimethyl-2,3,4,5,6,7,8,9,11,12,14,15,16,17-tetradecahydro-1H-cyclopenta[a]phenanthren-17-yl]pentanoyl]-[TyrB5,LysB28],des-(B29-B30)-Insulin [Example 9] | 0.49 % of human insulin | 0.40 % of human insulin | 0.29 |
